Data published in US11518764B2, “Substituted heteroaryls as inhibitors of the BCL6 BTB domain protein-protein interaction” (Ontario Institute for Cancer Research (OICR), priority 2018, dated 2022).
Where two headings read alike, the source gives them in different places.

Legend:
[1] = test system: BCL6 reporter construct (3xBCL6-TK-Luc) in SuDHL4 cells; assay: Cell-based luciferase assay
How it was run: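 SuDHL4 cells stably carrying a 3×BCL6-site TK-promoter firefly luciferase reporter, seeded at 15,000 cells/well, were dosed over a 10-point range (top 10 uM) and grown two days at 37 °C, 5% CO2. Luminescence then read after adding neolite reagent at room temperature.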

Karpas422 cells = assay: Tumor cell growth inhibition assay; assay type: cell-based
How it was run: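 Growth inhibition was measured by ATPlite luminescence after six days of culture at 37° C. in 5% CO2. Karpas422 cells were seeded at 2,000 per well in Alpha-MEM plus 10% FBS. Compounds were given as a 10-point concentration series with a highest dose of 5 uM.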

BCL6 BTB domain = BCL6 BTB domain (Homo sapiens (Human), UniProt P41182); assay: Surface plasmon resonance (SPR) assay; assay type: binding; conditions: BCL6 BTB domain captured on SA chip, single cycle kinetics
[2] = Homo sapiens, SU-DHL-4, 48 h, read-out: Luciferase-Assay EC50, uM), SuDHL4-3xBCL6-TK-Luc cells, two days, high dose 10 uM
[3] = Homo sapiens, KARPAS-422, 144 h, read-out: Tumor Growth Inhibition in Karpas-422 (IC50, uM), Karpas422 cells, six days, ATPlite
[4] = read-out: Luciferase-Assay EC50, SuDHL4-3xBCL6-TK-Luc cells, two days, high dose 10 uM
[5] = read-out: Tumor Growth Inhibition in Karpas-422 (IC50), Karpas422 cells, six days, ATPlite

SMILES	EC50 [1, 2] [µM]	IC50 (Karpas422 cells; [3]) [µM]	Kd (BCL6 BTB domain) [nM]	EC50 [1, 4] [µM]	IC50 (Karpas422 cells; [5]) [µM]
Cc1nc2c(c(-c3cc(C(N)=O)c(O)c4c3OCO4)cn2CC(=O)Nc2cc(N3CCNC[C@@H]3C)nc(F)c2Cl)c(=O)n1C [Compound I-230]	0.0625	0.0157	2.32		
CN1CCN(c2cc(NC(=O)Cn3cc(-c4cc(C(N)=O)c(O)c(F)c4F)c4c(=O)n(C)cnc43)c(Cl)cn2)CC1 [Compound I-231]	1.47	1.18	89.9		
Cc1nc2c(c(-c3cc(Cl)c(O)c(C(N)=O)c3)cn2CC(=O)Nc2cc(N3CC(C)(C)N(C)C(C)(C)C3)ncc2Cl)c(=O)n1C [Compound I-232]	0.267	0.222	11.8		
C[C@H]1COCCN1c1cc(NC(=O)Cn2cc(-c3cc(F)c(O)c(C(N)=O)c3)c3c(=O)n(C)c(C(F)(F)F)nc32)c(Cl)cn1 [Compound I-234]	0.441	0.255	48.8		
C[C@H]1COCCN1c1cc(NC(=O)Cn2cc(-c3cc(Cl)c(O)c(C(N)=O)c3)c3c(=O)n(C)cnc32)c(Cl)c(F)n1 [Compound I-235]	0.139	0.138	14		
Cn1cnc2c(c(-c3cc(Cl)c(O)c(C(N)=O)c3)cn2CC(=O)Nc2cc(N3CCN4C(=O)CCC4C3)ncc2Cl)c1=O (stereo not drawn) [Compound I-236]	0.739	0.385	16.6		
Cn1cnc2c(c(-c3cc(Cl)c(O)c(C(N)=O)c3)cn2CC(=O)Nc2cc(N3CCN4C(=O)OCC4C3)ncc2Cl)c1=O (stereo not drawn) [Compound I-237]	1.04	1.25	17.6		
CN1CC2CN(c3cc(NC(=O)Cn4cc(-c5cc(Cl)c(O)c(C(N)=O)c5)c5c(=O)n(C)cnc54)c(Cl)cn3)CCN2C1=O (stereo not drawn) [Compound I-238]	0.588	0.291	12.1		
C[C@H]1COCCN1c1cc(NC(=O)Cn2cc(-c3cc(Cl)c(O)c(C(N)=O)c3)c3c(=O)n(C)cnc32)c(F)cn1 [Compound I-241]	0.483	0.281	19.5		
NC(=O)c1cc(-c2cn(CC(=O)Nc3cc(N4CC5CCC(C4)O5)ncc3Cl)c3nc[nH]c(=O)c23)cc(Cl)c1O [Compound I-242]	0.483	0.312	5.01		
Cc1nc2c(c(-c3cc(F)c(O)c(C(N)=O)c3)cn2CC(=O)Nc2cc(N3CC(C)(C)NC(C)(C)C3)ncc2Cl)c(=O)n1C [Compound I-243]	0.19	0.134	12.4		
Cn1cnc2c(c(-c3cc(Cl)c(O)c(C(N)=O)c3)cn2CC(=O)Nc2cc(N3CCOC4CC43)ncc2Cl)c1=O (stereo not drawn) [Compound I-244]	0.279	0.169	8.46		
Cn1cnc2c(c(-c3cc(Cl)c(O)c(C(N)=O)c3)cn2CC(=O)Nc2cc(N3CCOCC34CCC4)ncc2Cl)c1=O [Compound I-245]	0.245	0.182	20.4		
Cn1cnc2c(c(-c3cc(Cl)c(O)c(C(N)=O)c3)cn2CC(=O)NC2CCCCC2F)c1=O (stereo not drawn) [Compound I-246]	10	10	1320		
C[C@H]1COCCN1c1cc(NC(=O)Cn2cc(-c3cc(Cl)c(O)c(C(N)=O)c3)c3c(=O)n(C)c(-c4ccccc4)nc32)c(Cl)cn1 [Compound I-248]	11.9	0.29	326		
Cc1nc2c(c(-c3cc(C(N)=O)c(O)c(F)c3F)cn2CC(=O)Nc2cc(N3CCOC[C@@H]3C)ncc2Cl)c(=O)n1C [Compound I-249]	0.689	0.736	77.3		
Cc1nc2c(c(-c3cc(F)c(O)c(C(N)=O)c3)cn2CC(=O)Nc2cc(N3CC(C)(C)N(C)C(C)(C)C3)ncc2Cl)c(=O)n1C [Compound I-250]	0.0822	0.0902	16.3		
Cn1cnc2c(c(-c3cc(Cl)c(O)c(C(N)=O)c3)cn2CC(=O)Nc2cc(N3CCOC(C(F)(F)F)C3)ncc2Cl)c1=O (stereo not drawn) [Compound I-256]			211	0.509	0.274
Cn1cnc2c(c(-c3cc(Cl)c(O)c(C(N)=O)c3)cn2CC(=O)Nc2cc(N3CCOC(C(F)(F)F)C3)ncc2Cl)c1=O (stereo not drawn) [Compound I-258]			100	0.549	0.491

SMILES	EC50 [1, 2] [µM]	IC50 (Karpas422 cells; [3]) [µM]	Kd (BCL6 BTB domain) [nM]	EC50 [1, 4] [µM]	IC50 (Karpas422 cells; [5]) [µM]
C[C@@H]1COC[C@@H](C)N1c1cc(NC(=O)Cn2cc(-c3cc(Cl)c(O)c(C(N)=O)c3)c3c(=O)n(C)cnc32)c(Cl)cn1 [Compound I-259]	0.214	0.652	38.5		
C[C@H]1CN(C)CCN1c1cc(NC(=O)Cn2cc(-c3cc(Cl)c(O)c(C(N)=O)c3)c3c(=O)n(C)c(-c4ccccc4)nc32)c(Cl)cn1 [Compound I-260, (S)-3-chloro-5-(7-(2-((5-chloro-2-(2,4-dimethylpiperazin-1-yl)pyridin-4-yl)amino)-2-oxoethyl)-3-methyl-4-oxo-2-phenyl-4,7-dihydro-3H-pyrrolo[2,3-d]pyrimidin-5-yl)-2-hydroxybenzamide]	10	0.238	58.8		
C[C@H]1CN(C)CCN1c1cc(NC(=O)Cn2cc(-c3cc(Cl)c(O)c(C(N)=O)c3)c3c(=O)[nH]c(-c4ccccc4)nc32)c(Cl)cn1 [Compound I-261, (S)-3-chloro-5-(7-(2-((5-chloro-2-(2,4-dimethylpiperazin-1-yl)pyridin-4-yl)amino)-2-oxoethyl)-4-oxo-2-phenyl-4,7-dihydro-3H-pyrrolo[2,3-d]pyrimidin-5-yl)-2-hydroxybenzamide]	0.65	0.225	39.8		
C[C@H]1COCCN1c1cc(NC(=O)Cn2cc(-c3cc(Cl)c(O)c(C(N)=O)c3)c3c(=O)n(C)c(Cl)nc32)c(Cl)cn1 [Compound I-262]	0.468	0.389	22.8		
C[C@@H]1COC[C@H](C)N1c1cc(NC(=O)Cn2cc(-c3cc(Cl)c(O)c(C(N)=O)c3)c3c(=O)n(C)cnc32)c(Cl)cn1 [Compound I-264]	0.347	0.376	30.3		
C[C@H]1CN(C)CCN1c1cc(NC(=O)Cn2cc(-c3cc(C(N)=O)c(O)c(Cl)c3F)c3c(=O)n(C)c(C(F)(F)F)nc32)c(Cl)cn1 [Compound I-267]	2.27	3.79	582		
CCN(C)c1nc2c(c(-c3cc(Cl)c(O)c(C(N)=O)c3)cn2CC(=O)Nc2cc(N3CCOC[C@@H]3C)ncc2Cl)c(=O)n1C [Compound I-269, (S)-3-chloro-5-(7-(2-((5-chloro-2-(3-methylmorpholino)pyridin-4-yl)amino)-2-oxoethyl)-2-(ethyl(methyl)amino)-3-methyl-4-oxo-4,7-dihydro-3H-pyrrolo[2,3-d]pyrimidin-5-yl)-2-hydroxybenzamide]	8.55	1.7	157		
C[C@H]1COCCN1c1cc(NC(=O)Cn2cc(-c3cc(Cl)c(O)c(C(N)=O)c3)c3c(=O)n(C)c(N4CCC4)nc32)c(Cl)cn1 [Compound I-270, (S)-5-(2-(azetidin-1-yl)-7-(2-((5-chloro-2-(3-methylmorpholino)pyridin-4-yl)amino)-2-oxoethyl)-3-methyl-4-oxo-4,7-dihydro-3H-pyrrolo[2,3-d]pyrimidin-5-yl)-3-chloro-2-hydroxybenzamide]	2.31	3.82	63		
CC(C)N1CCN(c2cc(NC(=O)Cn3cc(-c4cc(Cl)c(O)c(C(N)=O)c4)c4c(=O)n(C)cnc43)c(Cl)cn2)[C@@H](C)C1 [Compound I-271]	0.208	0.22	16		
Cc1nc2c(c(-c3cc(Cl)c(O)c(C(N)=O)c3)cn2CC(=O)Nc2cc(N3CCN(C(C)C)C[C@@H]3C)ncc2Cl)c(=O)n1C [Compound I-272]	0.133	0.145	14.8		
Cn1cnc2c(c(-c3cc(F)c(O)c(C(N)=O)c3)cn2CC(=O)Nc2cc(N3CCCC3)ncc2Cl)c1=O [Compound I-273]	0.416	0.251	5.31		
CC(C)N1CCN(c2cc(NC(=O)Cn3cc(-c4cc(Cl)c(O)c(C(N)=O)c4)c4c(=O)n(C)c(C(F)(F)F)nc43)c(Cl)cn2)[C@@H](C)C1 [Compound I-274]	0.669	0.332	138		
Cn1cnc2c(c(-c3cc(F)c(O)c(C(N)=O)c3)cn2CC(=O)Nc2cc(N3CC4COCC4C3)ncc2Cl)c1=O (stereo not drawn) [Compound I-275]	0.209	0.137	4.76		
CN1CCC2CN(c3cc(NC(=O)Cn4cc(-c5cc(F)c(O)c(C(N)=O)c5)c5c(=O)n(C)cnc54)c(Cl)cn3)CC21 (stereo not drawn) [Compound I-276]	1.1	0.355	33.1		
Cn1cnc2c(c(-c3cc(Cl)c(O)c(C(N)=O)c3)cn2CC(=O)Nc2cc(N3CCOC4COCC43)ncc2Cl)c1=O (stereo not drawn) [Compound I-277]	0.418	0.255	21		
Cn1cnc2c(c(-c3cc(Cl)c(O)c(C(N)=O)c3)cn2CC(=O)Nc2cc(N3CC4CCC(F)(F)C4C3)ncc2Cl)c1=O (stereo not drawn) [Compound I-278]	0.622	1.13	42.5		
Cn1cnc2c(c(-c3cc(Cl)c(O)c(C(N)=O)c3)cn2CC(=O)Nc2cc(N3C4CCC3COC4)ncc2Cl)c1=O [Compound I-279]	0.468	0.197	10.2		
Cn1cnc2c(c(-c3cc(Cl)c(O)c(C(N)=O)c3)cn2CC(=O)Nc2cc(N3CCOC4CCCC43)ncc2Cl)c1=O (stereo not drawn) [Compound I-280]	1.4	0.821	101		
